# Active and inactive are the calls of the source. The rule behind the calls is not given here.
# What was measured:
# [1] = Toxicity in BALB/c mouse assessed as increase in creatinine level at 20 mg/kg, po administered for 5 days and measured after 14 days by colorimetric assay; format: organism-based; conditions: in vivo, 120 h, time 5 day
# [2] = Toxicity in BALB/c mouse assessed as increase in serum AST level at 20 mg/kg, po administered for 5 days and measured on day 1 and day 14 by ELISA method; format: organism-based; conditions: in vivo, 120 h, time 5 day
# [3] = Toxicity in BALB/c mouse assessed as increase in creatinine level at 20 mg/kg, po administered for 5 days and measured after 1 day by colorimetric assay; format: organism-based; conditions: in vivo, 120 h, time 5 day
# Toxoplasma gondii [4] = experiment: Antiparasitic activity against Toxoplasma gondii RH infected in BALB/c mouse assessed as reduction of bradyzoite gene copies in brain at 20 mg/kg, po administered every 24 hrs for 5 days starting from 24 hrs post infection by real-time qPCR analysis; format: functional, organism-based; conditions: time 5.0 day
# [5] = Toxicity in BALB/c mouse assessed as hydropic degeneration at 20 mg/kg, po administered for 5 days and measured after 1 day by hematoxylin-eosin staining based microscopic analysis; format: organism-based; conditions: in vivo, 120 h, time 5 day
# [6] = Toxicity in BALB/c mouse assessed as changes in size of hepatocyte nuclei at 20 mg/kg, po administered for 5 days and measured after 1 day by hematoxylin-eosin staining based microscopic analysis; format: organism-based; conditions: hepatocytes, 120 h, time 5 day
# Toxoplasma gondii [7] = experiment: Antiparasitic activity against Toxoplasma gondii RH infected in BALB/c mouse assessed as prolongation of animal survival at 20 mg/kg, po administered every 24 hrs for 5 days starting from 24 hrs post infection by Kaplan-Meier method; format: functional, organism-based; conditions: time 5.0 day
# Toxoplasma gondii [8] = experiment: Antiparasitic activity against Toxoplasma gondii RH infected in BALB/c mouse assessed as reduction of daughter tachyzoites in blood at 20 mg/kg, po administered every 24 hrs for 5 days starting from 24 hrs post infection by real-time qPCR analysis; format: functional, organism-based; conditions: time 5.0 day
# [9] = Toxicity in BALB/c mouse assessed as disseminated necrosis of hepatocytes at 20 mg/kg, po administered for 5 days and measured after 1 day by hematoxylin-eosin staining based microscopic analysis; format: organism-based; conditions: in vivo, 120 h, time 5 day
# Toxoplasma gondii [10] = experiment: Antiparasitic activity against Toxoplasma gondii RH infected in BALB/c mouse assessed as decrease in IFNgamma level in serum at 20 mg/kg, po administered every 24 hrs for 5 days starting from 24 hrs post infection by ELISA method; format: functional, organism-based; conditions: time 5.0 day
# [11] = Toxicity in BALB/c mouse assessed as increase in serum ALT level at 20 mg/kg, po administered for 5 days and measured on day 1 and day 14 by ELISA method; format: organism-based; conditions: in vivo, 120 h, time 5 day
# Toxoplasma gondii [12] = experiment: Antiparasitic activity against Toxoplasma gondii DX infected in C3H/HeOuJ mouse assessed as prolongation of survival at 20 mg/kg, po administered every 24 hrs for 5 days starting from 24 hrs post infection by Kaplan-Meier method; format: functional, organism-based; conditions: time 5.0 day
# [13] = Toxicity in BALB/c mouse assessed as changes in liver weight at 20 mg/kg, po administered for 5 days and measured after 14 days; format: organism-based; conditions: in vivo, 120 h, time 5 day
# [14] = Toxicity in BALB/c mouse assessed as increase in liver weight at 20 mg/kg, po administered for 5 days and measured after 1 day; format: organism-based; conditions: in vivo, 120 h, time 5 day
# Toxoplasma gondii [15] = experiment: Antiparasitic activity against Toxoplasma gondii RH infected in BALB/c mouse assessed as reduction in number of bradyzoite gene copies in muscles at 20 mg/kg, po administered every 24 hrs for 5 days starting from 24 hrs post infection by real-time qPCR analysis; format: functional; conditions: time 5 day
smiles,measurement,setting,value
CCc1nc(N)nc(N)c1-c1ccc(Cl)cc1 [PYRIMETHAMINE],Activity,[1],Toxic
same,Activity,[2],Toxic
same,Activity,[3],Toxic
same,Activity,Toxoplasma gondii [4],Active
same,Activity,[5],Toxic
same,Activity,[6],Toxic
same,Activity,Toxoplasma gondii [7],Active
same,Activity,Toxoplasma gondii [8],Active
same,Activity,[9],Toxic
same,Activity,Toxoplasma gondii [10],Active
same,Activity,[11],Toxic
same,Activity,Toxoplasma gondii [12],Active
same,Activity,[13],Non-Toxic
same,Activity,[14],Toxic
same,Activity,Toxoplasma gondii [15],14

# From ChEMBL document CHEMBL5247617, “4-Arylthiosemicarbazide derivatives - Pharmacokinetics, toxicity and anti-Toxoplasma gondii activity in vivo” (Eur J Med Chem, 2022)
